From patent US20160213499A1, “BIODEGRADABLE ENDOPROSTHESES AND METHODS FOR THEIR FABRICATION” (Elixir Medical Corporation, priority 2015, published 2016) come the findings set out here.

A short description of this data set: Pharmacokinetic release profile of novolimus from a stent (FIG. 35). Type of data set: in vivo.

For the compound `CO[C@@H]1C[C@H](C[C@@H](C)[C@@H]2CC(=O)[C@H](C)/C=C(\C)[C@@H](O)[C@@H](OC)C(=O)[C@H](C)C[C@H](C)/C=C/C=C/C=C(\C)[C@@H](O)C[C@@H]3CC[C@@H](C)[C@@](O)(O3)C(=O)C(=O)N3CCCC[C@H]3C(=O)O2)CC[C@H]1O` [novolimus, 16-O-desmethyl-rapamycin], for the setting “at 90 days”, the tissue drug concentration is 0.5 ng/mg. The drug released entry (in one month) is “over 85%”.
